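Tested at 5 concentrations; 48 h exposure; 96-well plates; endpoints linearly interpolated, else capped at highest concentration. Here, GI50 denotes the concentration required for 50% inhibition of growth. At the TGI there is no net growth.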
Assays:
Test in all cases: DTP human tumour cell line panel, 48 h
A549 NSCLC = tested on: A549 NSCLC
RPMI-8226 leukemia = tested on: RPMI-8226 leukemia
MCF7 breast = tested on: MCF7 breast
HT29 colon = tested on: HT29 colon
LOX IMVI melanoma = tested on: LOX IMVI melanoma
SF-539 CNS = tested on: SF-539 CNS
NCI/ADR-RES ovarian = tested on: NCI/ADR-RES ovarian
CCRF-CEM leukemia = tested on: CCRF-CEM leukemia
HOP-62 NSCLC = tested on: HOP-62 NSCLC
MDA-MB-435 = tested on: MDA-MB-435
OVCAR-5 ovarian = tested on: OVCAR-5 ovarian
K-562 leukemia = tested on: K-562 leukemia
HCC-2998 colon = tested on: HCC-2998 colon
SF-268 CNS = tested on: SF-268 CNS
HL-60(TB) leukemia = tested on: HL-60(TB) leukemia
NCI-H522 lung = tested on: NCI-H522 lung
MDA-MB-468 breast = tested on: MDA-MB-468 breast
MOLT-4 leukemia = tested on: MOLT-4 leukemia
UACC-62 melanoma = tested on: UACC-62 melanoma
M14 melanoma = tested on: M14 melanoma
SK-MEL-2 melanoma = tested on: SK-MEL-2 melanoma
786-0 renal = tested on: 786-0 renal
RXF 393 renal = tested on: RXF 393 renal
SNB-19 CNS = tested on: SNB-19 CNS
SK-OV-3 ovarian = tested on: SK-OV-3 ovarian
SW-620 colon = tested on: SW-620 colon
MALME-3M melanoma = tested on: MALME-3M melanoma
OVCAR-4 ovarian = tested on: OVCAR-4 ovarian
HCT-116 colon = tested on: HCT-116 colon
OVCAR-8 ovarian = tested on: OVCAR-8 ovarian
IGROV1 ovarian = tested on: IGROV1 ovarian
HS 578T breast = tested on: HS 578T breast
SNB-75 CNS = tested on: SNB-75 CNS
SK-MEL-5 melanoma = tested on: SK-MEL-5 melanoma
UACC-257 melanoma = tested on: UACC-257 melanoma
DU-145 prostate = tested on: DU-145 prostate
OVCAR-3 ovarian = tested on: OVCAR-3 ovarian
HOP-92 NSCLC = tested on: HOP-92 NSCLC
SF-295 CNS = tested on: SF-295 CNS
BT-549 breast = tested on: BT-549 breast
SK-MEL-28 melanoma = tested on: SK-MEL-28 melanoma
TK-10 renal = tested on: TK-10 renal
A498 renal = tested on: A498 renal
ACHN renal = tested on: ACHN renal
NCI-H226 lung = tested on: NCI-H226 lung
UO-31 renal = tested on: UO-31 renal
NCI-H23 lung = tested on: NCI-H23 lung
COLO 205 colon = tested on: COLO 205 colon
SR leukemia = tested on: SR leukemia
EKVX NSCLC = tested on: EKVX NSCLC
SN12C renal = tested on: SN12C renal
HCT-15 colon = tested on: HCT-15 colon
CAKI-1 renal = tested on: CAKI-1 renal
T-47D breast = tested on: T-47D breast
PC-3 prostate = tested on: PC-3 prostate
KM12 colon = tested on: KM12 colon
U251 CNS = tested on: U251 CNS
MDA-MB-231 breast = tested on: MDA-MB-231 breast
NCI-H460 lung = tested on: NCI-H460 lung

## N#Cc1ccc(C(=O)CSc2nc3c(c(Nc4ccc(S(N)(=O)=O)cc4)n2)CCC3)cc1
A549 NSCLC
  GI50: > 22.5 µM
  TGI: > 22.5 µM
RPMI-8226 leukemia
  GI50: > 22.5 µM
  TGI: > 22.5 µM
MCF7 breast
  GI50: > 22.5 µM
  TGI: > 22.5 µM
HT29 colon
  GI50: > 22.5 µM
  TGI: > 22.5 µM
LOX IMVI melanoma
  GI50: > 22.5 µM
  TGI: > 22.5 µM
SF-539 CNS
  GI50: > 22.5 µM
  TGI: > 22.5 µM
NCI/ADR-RES ovarian
  GI50: > 22.5 µM
  TGI: > 22.5 µM
CCRF-CEM leukemia
  GI50: > 22.5 µM
  TGI: > 22.5 µM
HOP-62 NSCLC
  GI50: > 22.5 µM
  TGI: > 22.5 µM
MDA-MB-435
  GI50: > 22.5 µM
  TGI: > 22.5 µM
OVCAR-5 ovarian
  GI50: > 22.5 µM
  TGI: > 22.5 µM
K-562 leukemia
  GI50: > 22.5 µM
  TGI: > 22.5 µM
HCC-2998 colon
  GI50: > 22.5 µM
  TGI: > 22.5 µM
SF-268 CNS
  GI50: > 22.5 µM
  TGI: > 22.5 µM
HL-60(TB) leukemia
  GI50: > 22.5 µM
  TGI: > 22.5 µM
NCI-H522 lung
  GI50: > 22.5 µM
  TGI: > 22.5 µM
MDA-MB-468 breast
  GI50: > 22.5 µM
  TGI: > 22.5 µM
MOLT-4 leukemia
  GI50: > 22.5 µM
  TGI: > 22.5 µM
UACC-62 melanoma
  GI50: > 22.5 µM
  TGI: > 22.5 µM
M14 melanoma
  GI50: > 22.5 µM
  TGI: > 22.5 µM
SK-MEL-2 melanoma
  GI50: > 22.5 µM
  TGI: > 22.5 µM
786-0 renal
  GI50: > 22.5 µM
  TGI: > 22.5 µM
RXF 393 renal
  GI50: > 22.5 µM
  TGI: > 22.5 µM
SNB-19 CNS
  GI50: > 22.5 µM
  TGI: > 22.5 µM
SK-OV-3 ovarian
  GI50: > 22.5 µM
  TGI: > 22.5 µM
SW-620 colon
  GI50: > 22.5 µM
  TGI: > 22.5 µM
MALME-3M melanoma
  GI50: > 22.5 µM
  TGI: > 22.5 µM
OVCAR-4 ovarian
  GI50: > 22.5 µM
  TGI: > 22.5 µM
HCT-116 colon
  GI50: > 22.5 µM
  TGI: > 22.5 µM
OVCAR-8 ovarian
  GI50: > 22.5 µM
  TGI: > 22.5 µM
IGROV1 ovarian
  GI50: > 22.5 µM
  TGI: > 22.5 µM
HS 578T breast
  GI50: > 22.5 µM
  TGI: > 22.5 µM
SNB-75 CNS
  GI50: > 22.5 µM
  TGI: > 22.5 µM
SK-MEL-5 melanoma
  GI50: > 22.5 µM
  TGI: > 22.5 µM
UACC-257 melanoma
  GI50: > 22.5 µM
  TGI: > 22.5 µM
DU-145 prostate
  GI50: > 22.5 µM
  TGI: > 22.5 µM
OVCAR-3 ovarian
  GI50: > 22.5 µM
  TGI: > 22.5 µM
HOP-92 NSCLC
  GI50: > 22.5 µM
  TGI: > 22.5 µM
SF-295 CNS
  GI50: > 22.5 µM
  TGI: > 22.5 µM
BT-549 breast
  GI50: > 22.5 µM
  TGI: > 22.5 µM
SK-MEL-28 melanoma
  GI50: > 22.5 µM
  TGI: > 22.5 µM
TK-10 renal
  GI50: > 22.5 µM
  TGI: > 22.5 µM
A498 renal
  GI50: > 22.5 µM
  TGI: > 22.5 µM
ACHN renal
  GI50: > 22.5 µM
  TGI: > 22.5 µM
NCI-H226 lung
  GI50: > 22.5 µM
  TGI: > 22.5 µM
UO-31 renal
  GI50: > 22.5 µM
  TGI: > 22.5 µM
NCI-H23 lung
  GI50: > 22.5 µM
  TGI: > 22.5 µM
COLO 205 colon
  GI50: > 22.5 µM
  TGI: > 22.5 µM
SR leukemia
  GI50: > 22.5 µM
  TGI: > 22.5 µM
EKVX NSCLC
  GI50: > 22.5 µM
  TGI: > 22.5 µM
SN12C renal
  GI50: > 22.5 µM
  TGI: > 22.5 µM
HCT-15 colon
  GI50: > 22.5 µM
  TGI: > 22.5 µM
CAKI-1 renal
  GI50: > 22.5 µM
  TGI: > 22.5 µM
T-47D breast
  GI50: > 22.5 µM
  TGI: > 22.5 µM
PC-3 prostate
  GI50: > 22.5 µM
  TGI: > 22.5 µM
KM12 colon
  GI50: > 22.5 µM
  TGI: > 22.5 µM
U251 CNS
  GI50: > 22.5 µM
  TGI: > 22.5 µM
MDA-MB-231 breast
  GI50: > 22.5 µM
  TGI: > 22.5 µM
NCI-H460 lung
  GI50: > 22.5 µM
  TGI: > 22.5 µM

— PubChem BioAssay (NCI)
